For 20 compounds, CC50, Activity and inhibition results are on record in ChEMBL document CHEMBL1148655, “Anti-angiogenic activity of basic-type, selective cyclooxygenase (COX)-1 inhibitors” (2006).

Active and inactive are the calls of the source. No cut-off for these calls is given here.

For test [1], the system named is HUVEC. The test can be described thus: Cytotoxicity against HUVEC cell line. The test is classed as functional. Conditions: Homo sapiens, read-out: LD50 (the source's name).
The test system of test [2] is HUVEC. Kind of test: Antiangiogenic activity against HUVEC cells by tube formation assay at 100 uM. Conditions: for inhibition at 100 µM: Homo sapiens, HUVEC. The test is classed as functional, Homo sapiens.
In test [3] the target is Prostaglandin G/H synthase 1 (Homo sapiens) (UniProt P23219). Conditions: at 30 µM.
Prostaglandin G/H synthase 1 (Homo sapiens), sequence (P23219 whole entry): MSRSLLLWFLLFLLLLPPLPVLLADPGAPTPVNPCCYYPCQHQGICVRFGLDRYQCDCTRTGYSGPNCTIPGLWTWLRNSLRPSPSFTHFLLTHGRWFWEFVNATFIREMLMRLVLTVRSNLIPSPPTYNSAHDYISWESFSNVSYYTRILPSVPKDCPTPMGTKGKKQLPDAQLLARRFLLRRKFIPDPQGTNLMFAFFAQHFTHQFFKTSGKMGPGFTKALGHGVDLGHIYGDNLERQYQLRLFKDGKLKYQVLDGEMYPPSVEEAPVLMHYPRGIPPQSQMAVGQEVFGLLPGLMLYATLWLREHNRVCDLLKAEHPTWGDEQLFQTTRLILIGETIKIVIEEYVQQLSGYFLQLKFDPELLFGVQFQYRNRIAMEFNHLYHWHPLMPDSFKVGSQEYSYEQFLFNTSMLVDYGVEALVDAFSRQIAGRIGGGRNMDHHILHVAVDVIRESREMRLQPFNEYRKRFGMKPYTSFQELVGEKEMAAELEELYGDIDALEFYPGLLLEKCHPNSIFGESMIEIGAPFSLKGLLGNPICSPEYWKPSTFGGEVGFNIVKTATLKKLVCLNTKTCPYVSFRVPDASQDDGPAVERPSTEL
Description: Inhibition of COX1 at 30 uM
Test [4] has as its target T1, Prostaglandin G/H synthase 2 (Homo sapiens) (UniProt P35354).
T1 sequence (whole entry): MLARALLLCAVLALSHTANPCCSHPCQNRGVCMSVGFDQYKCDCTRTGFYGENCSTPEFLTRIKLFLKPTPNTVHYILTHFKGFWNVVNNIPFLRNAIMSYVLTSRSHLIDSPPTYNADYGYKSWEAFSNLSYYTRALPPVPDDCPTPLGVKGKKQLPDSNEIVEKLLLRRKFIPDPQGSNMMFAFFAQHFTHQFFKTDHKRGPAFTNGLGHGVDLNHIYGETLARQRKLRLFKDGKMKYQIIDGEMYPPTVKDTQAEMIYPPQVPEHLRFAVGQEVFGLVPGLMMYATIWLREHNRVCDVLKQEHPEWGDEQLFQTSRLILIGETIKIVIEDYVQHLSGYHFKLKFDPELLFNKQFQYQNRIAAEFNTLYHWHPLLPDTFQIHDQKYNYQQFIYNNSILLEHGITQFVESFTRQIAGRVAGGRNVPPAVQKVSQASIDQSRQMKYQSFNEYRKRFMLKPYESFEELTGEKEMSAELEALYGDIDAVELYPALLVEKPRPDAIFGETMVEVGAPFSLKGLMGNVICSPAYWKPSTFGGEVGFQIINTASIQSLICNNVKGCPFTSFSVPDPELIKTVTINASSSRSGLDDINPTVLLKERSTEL
Conditions: at 30 µM.
Description: Inhibition of COX2 at 30 uM

For the compound `Nc1ccc2c(c1)CCN2C(=O)c1cc(Cl)cc(Cl)c1`, the CC50 in the test on HUVEC [1] was > 100 µM.

With `O=C(c1cc(C(F)(F)F)cc(C(F)(F)F)c1)N1CCc2cc([N+](=O)[O-])ccc21`, the CC50 in the test with HUVEC [1] was > 100 µM.

With `CC(C)(C)c1cc(C(=O)n2ccc3cc([N+](=O)[O-])ccc32)cc(C(C)(C)C)c1`, the CC50 in the test with HUVEC [1] is > 100 µM.

As to `Nc1ccc2c(c1)CCN2C(=O)c1cc(C(F)(F)F)cc(C(F)(F)F)c1`, the CC50 in the test with HUVEC [1] was > 100 µM.

As for `Nc1ccc2c(ccn2C(=O)c2cc(C(F)(F)F)cc(C(F)(F)F)c2)c1`, the CC50 with HUVEC [1] was > 100 µM.

Consider `CC(C)(C)c1cc(C(=O)N2CCc3cc(N)ccc32)cc(C(C)(C)C)c1`, for which the CC50 in the test with HUVEC [1] is > 100 µM.

For the compound `Cc1cc(C)cc(C(=O)N2CCc3cc(N)ccc32)c1`, the CC50 in the test with HUVEC [1] was > 100 µM.

As for `O=C(c1cc(Cl)cc(Cl)c1)N1CCc2cc([N+](=O)[O-])ccc21`, the CC50 in the test with HUVEC [1] was > 100 µM.

`Cc1cc(C)cc(N2CCc3cc(N)ccc32)c1` had an Activity with HUVEC [2] of 75%.

With `Cc1cc(C)cc(C(=O)n2ccc3cc([N+](=O)[O-])ccc32)c1`, the CC50 in the test with HUVEC [1] is > 100 µM.

As to `Nc1ccc2c(ccn2C(=O)c2cc(Cl)cc(Cl)c2)c1`, the CC50 in the test with HUVEC [1] was > 100 µM.

What is called inhibition is the drop in the measured response relative to a control, in per cent. Take `CC(=O)Oc1ccccc1C(=O)O`: the inhibition in test [3] worked out at 21.9%; in test [4], 15.7%.

As for `Cc1cc(C)cc(C(=O)N2CCc3cc([N+](=O)[O-])ccc32)c1`, the CC50 with HUVEC [1] is > 100 µM.

Regarding `CC(C)(C)c1cc(C(=O)n2ccc3cc(N)ccc32)cc(C(C)(C)C)c1`, the CC50 with HUVEC [1] was > 100 µM.

Consider `CS(=O)(=O)c1ccc(-c2cc(Br)sc2-c2ccc(F)cc2)cc1` [DUP-697], for which the inhibition result in test [3] is “inactive”. This compound also registered an inhibition at 100 µM with HUVEC [2] of 25%.

For the compound `Cc1cc(C)cc(C(=O)n2ccc3cc(N)ccc32)c1`, the CC50 with HUVEC [1] is > 100 µM. Besides, testing at 100 µM in the test on HUVEC [2] gave an inhibition of 50%.

`O=C(c1cc(C(F)(F)F)cc(C(F)(F)F)c1)n1ccc2cc([N+](=O)[O-])ccc21`: the CC50 in the test on HUVEC [1] was > 100 µM.

With `O=C(c1cc(Cl)cc(Cl)c1)n1ccc2cc([N+](=O)[O-])ccc21`, the CC50 in the test with HUVEC [1] was > 100 µM.

For the compound `CC(C)Cc1ccc(C(C)C(=O)O)cc1` (stereo not drawn) [IBUPROFEN], in the test with HUVEC [2], testing at 100 µM gave an inhibition of 35%.

Consider `CC(C)(C)c1cc(C(=O)N2CCc3cc([N+](=O)[O-])ccc32)cc(C(C)(C)C)c1`, for which the CC50 in the test with HUVEC [1] is > 100 µM.
